Measurements: patent US20240246946A1, “MODULATORS OF TREX1” (Constellation Pharmaceuticals, Inc., priority 2021, published 2024)

Legend:
full length human TREX1 = molecular target: T1, full length human TREX1 (Homo sapiens, UniProt Q9NSU2); assay: hTREX1 Biochemical Assay (fluorescence, dsDNA substrate degradation); conditions: biochemical, read-out: hTREX1 IC50
T1 construct: N-terminally His-Tev tagged full length human TREX1; made in house; host or cells: E. coli
T1 sequence (Q9NSU2 1-314): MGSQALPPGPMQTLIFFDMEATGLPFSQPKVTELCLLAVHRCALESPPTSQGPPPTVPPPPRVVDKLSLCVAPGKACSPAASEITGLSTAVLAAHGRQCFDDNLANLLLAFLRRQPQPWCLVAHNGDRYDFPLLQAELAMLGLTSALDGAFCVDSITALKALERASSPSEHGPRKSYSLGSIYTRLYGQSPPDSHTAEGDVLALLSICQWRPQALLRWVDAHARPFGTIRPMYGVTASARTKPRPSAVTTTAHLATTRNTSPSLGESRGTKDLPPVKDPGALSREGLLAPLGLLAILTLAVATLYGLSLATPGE
How it was run: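 Cleavage of 60 nM TEX615/quencher-labelled dsDNA in pH 7.4 Tris buffer with 5 mM MgCl2, 1.0% DMSO, run 18 hours at 25° C, EDTA-quenched; fluorescence read-out.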

hTREX1 = molecular target: T2, hTREX1 (Homo sapiens, UniProt Q9NSU2); assay: hTREX1 HCT116 Cell Assay (HCT116 dual cells, Lucia luciferase reporter of Type I interferon induction); format: cell-based; conditions: TREX1i 4 h before pBR322/BstNI transfection, read after 48 h
T2 construct: host or cells: HCT116 dual cells
T2 sequence (Q9NSU2 1-314): T1 sequence (Q9NSU2 1-314)
Source text: HCT116 dual cells (Invivogen, San Diego, CA, USA) are derived from the human HCT116 colorectal carcinoma cell line. Cells have been selected for the stable integration of SEAP and Luciferase reporter genes, which expression is under the control of 5 tandem response elements for NF-KB/AP1 and STAT1/STAT2, respectively. The cell line was used to monitor Type I interferon induction and subsequent signaling by measuring the activity of the Lucia luciferase secreted in the culture medium.
HCT116 cells were plated in 96-well plate(s) at 40,000 cells/well in 100 uL DMEM supplemented with 10% FBS and 25 mM Hepes (pH 7.2-7.5). After overnight settling, cells were treated with TREX1i for 4 h (maximum DMSO fraction was 0.1%) before 1 ug/mL pBR322/BstNI restriction digest (New England Biolabs, Ipswich, MA, USA) was transfected with Lipofectamine LTX (ThermoFisher, Grand Island, NY, USA), according to product manual recommendations. Briefly, Lipofectamine LTX (0.35 uL/well) was diluted in OptiMEM (5 uL/well). pBR322/BstNI (100 ng/well) was diluted in OptiMEM (5 uL/well) before Plus reagent (0.1 uL/100 ng DNA) was added. After 5 min incubation at room temperature, the DNA mixture was mixed dropwise with the diluted Lipofectamine LTX. After an additional 10 min incubation, the transfection mix (10 uL/well) was added to the cells. Cells were maintained at 37 C for 48 h before monitoring the Lucia Luciferase activity from the cell culture medium.

full length mouse TREX1 = molecular target: T3, full length mouse TREX1 (Mus musculus, UniProt Q91XB0); assay: mTREX1 Biochemical Assay (fluorescence, dsDNA substrate degradation); conditions: biochemical, read-out: mTREX1 IC50
T3 construct: N-terminally His-Tev tagged full length mouse TREX1; made in house; host or cells: E. coli
T3 sequence (Q91XB0 1-314): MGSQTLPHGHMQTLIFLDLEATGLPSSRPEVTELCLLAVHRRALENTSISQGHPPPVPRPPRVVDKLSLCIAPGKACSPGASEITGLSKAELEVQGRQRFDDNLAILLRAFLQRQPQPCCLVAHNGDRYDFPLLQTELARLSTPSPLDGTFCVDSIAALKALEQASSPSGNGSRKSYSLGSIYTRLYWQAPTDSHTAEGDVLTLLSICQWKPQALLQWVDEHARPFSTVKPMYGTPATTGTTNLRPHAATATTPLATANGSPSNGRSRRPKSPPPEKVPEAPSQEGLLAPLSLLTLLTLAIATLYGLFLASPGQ
How it was run: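 Reaction run 18 h at 25° C. with 60 nM TEX615/quencher-labelled dsDNA and 6 pM mouse TREX1 in Tris buffer (pH 7.4, 5 mM MgCl2, 1.0% DMSO), enzyme having sat 4 h with compound across 10 concentrations. EDTA quench; substrate degradation measured as fluorescence increase.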

Cc1nn(C)cc1C(c1ccccc1C#N)C(C)c1nc(C(=O)Nc2cnoc2)c(O)c(=O)n1C (single isomer, unassigned) [Example 3 D2E2]
IC50 (full length human TREX1): 0.001 to 0.01 µM | IC50 (hTREX1): > 0.1 µM | IC50 (full length mouse TREX1): > 0.01 µM

Cc1c(C(c2ccccc2C#N)C(C)c2nc(C(=O)Nc3cnoc3)c(O)c(=O)n2C)cnn1C (single isomer, unassigned) [Example 4 D1E1]
IC50 (full length human TREX1): < 0.001 µM | IC50 (hTREX1): 0.01 to 0.1 µM | IC50 (full length mouse TREX1): 0.001 to 0.01 µM

Cc1ccc(C(c2ccccc2C#N)C(C)c2nc(C(=O)Nc3cnoc3)c(O)c(=O)n2C)cn1 (single isomer, unassigned) [Example 5 D2E2]
IC50 (full length human TREX1): 0.001 to 0.01 µM | IC50 (hTREX1): > 0.1 µM | IC50 (full length mouse TREX1): > 0.01 µM

Cc1cc(C(c2ccccc2C#N)C(C)c2nc(C(=O)Nc3cnoc3)c(O)c(=O)n2C)ccn1 (single isomer, unassigned) [Example 6 D2E2]
IC50 (full length human TREX1): 0.001 to 0.01 µM | IC50 (hTREX1): > 0.1 µM | IC50 (full length mouse TREX1): > 0.01 µM

CC(c1nc(C(=O)Nc2cnoc2)c(O)c(=O)n1C)C(c1cnn(C)c1)c1cccnc1C#N (single isomer, unassigned) [Example 7 D1E1]
IC50 (full length human TREX1): 0.001 to 0.01 µM | IC50 (hTREX1): > 0.1 µM | IC50 (full length mouse TREX1): > 0.01 µM

CC(c1nc(C(=O)Nc2cnoc2)c(O)c(=O)n1C)C(c1cnn(C)c1)c1ccncc1C#N (single isomer, unassigned) [Example 8 D1E2]
IC50 (full length human TREX1): < 0.001 µM | IC50 (hTREX1): 0.01 to 0.1 µM | IC50 (full length mouse TREX1): 0.001 to 0.01 µM

CC(c1nc(C(=O)Nc2cnoc2)c(O)c(=O)n1C)C(c1cnn(C)c1)c1ccncc1C#N (single isomer, unassigned) [Example 8 D2E2]
IC50 (full length human TREX1): 0.001 to 0.01 µM | IC50 (hTREX1): > 0.1 µM | IC50 (full length mouse TREX1): > 0.01 µM

CC(c1nc(C(=O)Nc2cnoc2)c(O)c(=O)n1C)C(c1ccccc1C#N)c1cn(C)nc1C#N (single isomer, unassigned) [Example 10 D1E2]
IC50 (full length human TREX1): 0.001 to 0.01 µM | IC50 (hTREX1): 0.01 to 0.1 µM | IC50 (full length mouse TREX1): > 0.01 µM

COCCn1cc(C(c2cc(F)ccc2C#N)C(C)c2nc(C(=O)Nc3cnoc3)c(O)c(=O)n2C)cn1 (single isomer, unassigned) [Example 18 D1E2]
IC50 (full length human TREX1): < 0.001 µM | IC50 (hTREX1): > 0.1 µM | IC50 (full length mouse TREX1): 0.001 to 0.01 µM

CC(c1nc(C(=O)Nc2cnoc2)c(O)c(=O)n1C)C(c1cnn(C)c1)c1c(C#N)cccc1C#N (single isomer, unassigned) [Example 19 D1E2]
IC50 (full length human TREX1): < 0.001 µM | IC50 (hTREX1): < 0.01 µM | IC50 (full length mouse TREX1): 0.001 to 0.01 µM

CC(c1nc(C(=O)Nc2cnoc2)c(O)c(=O)n1C)C(c1cnn(C)c1)c1cc(F)c(F)cc1Cl (single isomer, unassigned) [Example 28 D1E1]
IC50 (full length human TREX1): < 0.001 µM | IC50 (hTREX1): 0.01 to 0.1 µM | IC50 (full length mouse TREX1): 0.001 to 0.01 µM

CC(c1nc(C(=O)Nc2cnoc2)c(O)c(=O)n1C)C(c1cnn(CCN2CCNCC2)c1)c1ccccc1C#N (single isomer, unassigned) [Example 31 D1E1]
IC50 (full length human TREX1): < 0.001 µM | IC50 (hTREX1): > 0.1 µM | IC50 (full length mouse TREX1): 0.001 to 0.01 µM

CC(c1nc(C(=O)Nc2cnoc2)c(O)c(=O)n1C)C(c1cnn(CCN2CCN(C)CC2)c1)c1ccccc1C#N (single isomer, unassigned) [Example 32 D1E1]
IC50 (full length human TREX1): < 0.001 µM | IC50 (hTREX1): > 0.1 µM | IC50 (full length mouse TREX1): 0.001 to 0.01 µM

CC(c1nc(C(=O)Nc2cnoc2)c(O)c(=O)n1C)C(c1cnn(CCCN(C)C)c1)c1ccccc1C#N (single isomer, unassigned) [Example 34 D1E1]
IC50 (full length human TREX1): < 0.001 µM | IC50 (hTREX1): > 0.1 µM | IC50 (full length mouse TREX1): 0.001 to 0.01 µM

CC(c1nc(C(=O)Nc2cnoc2)c(O)c(=O)n1C)C(c1cnn(CC(C)(C)O)c1)c1ccccc1C#N (single isomer, unassigned) [Example 36 D1E1]
IC50 (full length human TREX1): < 0.001 µM | IC50 (hTREX1): > 0.1 µM | IC50 (full length mouse TREX1): 0.001 to 0.01 µM

COC(C)(C)Cn1cc(C(c2ccccc2C#N)C(C)c2nc(C(=O)Nc3cnoc3)c(O)c(=O)n2C)cn1 (single isomer, unassigned) [Example 37 D1E1]
IC50 (full length human TREX1): < 0.001 µM | IC50 (hTREX1): 0.01 to 0.1 µM | IC50 (full length mouse TREX1): 0.001 to 0.01 µM

CC(c1nc(C(=O)Nc2cnoc2)c(O)c(=O)n1C)C(c1cnn(C(F)F)c1)c1ccccc1C#N (single isomer, unassigned) [Example 38 D2E2]
IC50 (full length human TREX1): 0.001 to 0.01 µM | IC50 (hTREX1): > 0.1 µM | IC50 (full length mouse TREX1): > 0.01 µM

CC(c1nc(C(=O)Nc2cnoc2)c(O)c(=O)n1C)C(c1cocn1)c1ccccc1C#N (single isomer, unassigned) [Example 50 D1E1]
IC50 (full length human TREX1): 0.001 to 0.01 µM | IC50 (hTREX1): > 0.1 µM | IC50 (full length mouse TREX1): > 0.01 µM

CC(c1nc(C(=O)Nc2cnoc2)c(O)c(=O)n1C)C(c1ncn(C)n1)c1ccccc1C#N (single isomer, unassigned) [Example 51 D1E2]
IC50 (full length human TREX1): 0.001 to 0.01 µM | IC50 (hTREX1): 0.01 to 0.1 µM | IC50 (full length mouse TREX1): > 0.01 µM

CC(c1nc(C(=O)Nc2cnoc2)c(O)c(=O)n1C)C(c1ccccc1C#N)c1c(C#N)cnn1C (single isomer, unassigned) [Example 52 D1E1]
IC50 (full length human TREX1): 0.001 to 0.01 µM | IC50 (hTREX1): 0.01 to 0.1 µM | IC50 (full length mouse TREX1): > 0.01 µM

CC(c1nc(C(=O)Nc2cnoc2)c(O)c(=O)n1C)C(c1ccccc1C#N)c1c(C#N)cnn1C (single isomer, unassigned) [Example 52 D2E1]
IC50 (full length human TREX1): > 0.01 µM | IC50 (hTREX1): > 0.1 µM | IC50 (full length mouse TREX1): > 0.01 µM

CC(c1nc(C(=O)Nc2cnoc2)c(O)c(=O)n1C)C(c1cnn(C)c1)c1cc(F)ccc1Cl (single isomer, unassigned) [Example 61 D1E1]
IC50 (full length human TREX1): < 0.001 µM | IC50 (hTREX1): < 0.01 µM | IC50 (full length mouse TREX1): 0.001 to 0.01 µM

Cc1nn(C)cc1C(c1cc(F)ccc1Cl)C(C)c1nc(C(=O)Nc2cnoc2)c(O)c(=O)n1C (single isomer, unassigned) [Example 62 D2E2]
IC50 (full length human TREX1): < 0.001 µM | IC50 (hTREX1): < 0.01 µM | IC50 (full length mouse TREX1): 0.001 to 0.01 µM

CCn1ncc(C(c2ccc(F)cc2C#N)C(C)c2nc(C(=O)Nc3cnoc3)c(O)c(=O)n2C)c1C (single isomer, unassigned) [Example 65 D1E1]
IC50 (full length human TREX1): < 0.001 µM | IC50 (hTREX1): < 0.01 µM | IC50 (full length mouse TREX1): < 0.001 µM

CCn1ncc(C(c2ccccc2C#N)C(C)c2nc(C(=O)Nc3cnoc3)c(O)c(=O)n2C)c1C (single isomer, unassigned) [Example 68 D1E1]
IC50 (full length human TREX1): < 0.001 µM | IC50 (hTREX1): < 0.01 µM | IC50 (full length mouse TREX1): < 0.001 µM

Cc1nn(C)c(C)c1C(c1ccccc1C#N)C(C)c1nc(C(=O)Nc2cnoc2)c(O)c(=O)n1C (single isomer, unassigned) [Example 78 D2E1]
IC50 (full length human TREX1): 0.001 to 0.01 µM | IC50 (hTREX1): 0.01 to 0.1 µM | IC50 (full length mouse TREX1): > 0.01 µM

Cc1cnc(C)c(C(c2cc(F)ccc2C#N)C(C)c2nc(C(=O)Nc3cnoc3)c(O)c(=O)n2C)n1 (single isomer, unassigned) [Example 119 D1E1]
IC50 (hTREX1): < 0.01 µM
